# Experimental data reported in patent US20220202770A1, “COMPOSITION FOR TREATING HEPATITIS B, AND METHOD FOR EVALUATING REPLICATION ACTIVITY OF HEPATITIS B VIRUS” (priority 2016, published 2022).
# Experiments:
# [1] = tested on: Entecavir-resistance mutant HBV-Pol (HBV-Pol-ETVr, L180M/T184G/S202I/M204I); assay: Evaluation method for HBV replication activity with Entecavir-resistance mutant HBV-Pol; assay type: cell-based, hepatitis B virus; HeLa cells; conditions: Example 9, FIG. 12B (e, f); HeLa cells, 0.020-5.000 μM, 24 hours
# Excerpt: (§1) As described in the section of “background art”, long-term administration of conventional anti-HBV drugs made of a nucleotide/nucleoside analog such as Entecavir and Lamivudine causes the emergence of drug-resistant HBV. As a cause of the emergence of such a drug-resistant HBV, a mutation within the region of reverse transcription enzyme (RT) of HBV-Pol has been reported.
# (§2) Then, mutant HBV-Pol expression vectors having M204I mutation, and L180M/T184G/S202I/M204I mutations respectively introduced therein were prepared in accordance with a conventional method and designated as HBV-P-LAMr, and HBV-P-ETVr, respectively. As the MAPKK inhibitor, Hypothemycin was used. As a negative control against a drug-resistant HBV, an existing anti-HBV drug, Entecavir, was used.
# (§3) HBV replication evaluation was carried out in the same manner as in the evaluation method for HBV replication activity described in Example 1. The evaluation vector for HBV replication activity, and expression vectors of a wild type HBV-P or mutant HBV-P (HBV-P-LAMr or HBV-P-ETVr), HBc and HBx were introduced in the same ratio as in Example 2; at the same time, Hypothemycin or Entecavir was introduced in amounts of 0.000 μM, 0.020 μM, 0.039 μM, 0.078 μM, 0.156 μM, 0.313 μM, 0.625 μM, 1.250 μM, 2.500 μM or 5.000 μM. Culture was carried out under a 5% CO2 atmosphere at 37° C. […]
# [2] = tested on: Lamivudine-resistance mutant HBV-Pol (HBV-Pol-LAMr, M204I); assay: Evaluation method for HBV replication activity with Lamivudine-resistance mutant HBV-Pol; assay type: cell-based, hepatitis B virus; HeLa cells; conditions: Example 9, FIG. 12B (c, d); HeLa cells, 0.020-5.000 μM, 24 hours
# Excerpt: as §1, §2, §3
# [3] = tested on: HBV DNA replication (reverse transcription of reporter pgRNA by wild type HBV-Pol); assay: Evaluation method for HBV replication activity: reporter-minus strand DNA quantified by real time PCR in transfected HeLa cells; assay type: cell-based, hepatitis B virus (genotype C); HeLa cells; conditions: 24 hours; for suppression of reverse transcription by wild-type HBV-Pol: Example 9, FIG. 12B (a, b), 0.020-5.000 μM
# Description: To HeLa cells, the evaluation vector for HBV replication activity, HBV-P expression vector, HBc expression vector and HBx expression vector were introduced in various combinations (Introduction step). Combination patterns are as described in FIG. 4A. Transfection of the HeLa cells was carried out by electroporation. DNA (10 μg) was introduced into about 1×10^6 HeLa cells in the conditions of 125 V/2.5 ms plus length by an electroporator, Nepa 21 (Nepa Gene Co., Ltd.). The ratio of HBc expression vector:HBV-P expression vector:HBx expression vector was set to be 9:3:1. If there was an expression vector not to be introduced depending on the combination, the same ratio of an empty vector (pCI) as that of the expression vector not to be introduced was introduced. The ratio of the evaluation vector for HBV replication activity and the total of other expression vectors was set to be 1: 1 (5 μg: 5 μg). If there was an expression vector not to be introduced, pCI was introduced at the ratio corresponding to that of the expression vector.
# After transfection, the HeLa cells were cultured in DMEM supplemented with 2 mL of 10% FBS in the presence of 5% CO2 at 37° C. for 48 hours (Culturing step).
# After culture, DNA was extracted from the HeLa cells by means of DNeasy Mini (Qiagen). As the primer, a primer pair of a forward primer consisting of the nucleotide sequence represented by SEQ ID NO: 38 and a reverse primer consisting of the nucleotide sequence represented by SEQ ID NO: 39, was used. The forward primer has the two nucleotides at the 3′ terminal, which match the two nucleotides at the 5′ terminal of the exon present on the downstream side; however, fail to match two nucleotides at the 5′ terminal of the intron. Accordingly, the forward primer functions as a primer only in the case where reporter-minus strand DNA having a reporter sequence from which the intron was removed is present, and amplification can be made by using the reporter-minus strand DNA as a template to provide a DNA fragment of 131 nucleotides.
# In accordance with the evaluation method for HBV replication activity described in Example 1, an evaluation vector for HBV replication activity, HBV-P expression vector, HBc expression vector and HBx expression vector were introduced in HeLa cells. […]
# To HeLa cells, an evaluation vector for HBV replication activity, and expression vectors of HBV-P, HVc and HBx were introduced in the ratio described in the evaluation method for HBV replication activity described in Example 2. […] The absorbance of the culture solution was measured at 450 nm/650 nm to evaluate the survival rates of the cells. […]
# [4] = molecular target: HBV/C-Pol (hepatitis B virus polymerase, Genotype C), wild type (hepatitis B virus, Genotype C) (UniProt Q9YZR5); assay: cell-based or functional assay
# [5] = tested on: genomic DNA (G3PDH exon 8) of HeLa cells; assay: Amount of genomic DNA (G3PDH exon 8) in HeLa cells by real time PCR; assay type: cell-based, human (HeLa cells); conditions: Example 3, FIG. 6B, serially diluted
# Description: (§4) To HeLa cells, an evaluation vector for HBV replication activity, and expression vectors of HBV-P, HVc and HBx were introduced in the ratio described in the evaluation method for HBV replication activity described in Example 2. Thereafter, the HeLa cells were cultured in a 96-well plate containing a culture solution supplemented with a 0.25% n-butanol extract of a filamentous fungus culture, under 5% CO2 atmosphere at 37° C. Twenty-four hours later, WST-8 (Nacalai) was added to the culture solution, which was further subjected to culture for 2 hours. The absorbance of the culture solution was measured at 450 nm/650 nm to evaluate the survival rates of the cells.
# (§5) After the culture solution was removed, DNA in the cell cytoplasm was recovered by a treatment with 50 μl of Buffer A (10 mM HEPES, 1.5 mM MgCl2, 10 mM KCl, 0.5 mM DTT, 0.05% NP40, pH7.9) and subjected to real time PCR performed in accordance with the method of Example 1. As the result of primary screening of 800 extracts (200 strains, 4 culture solutions), 162 extracts inhibiting 25% or more of HBV DNA replication (reverse transcription) and having a cytotoxic activity of 80% or less were selected as a primary hit.
# (§6) Subsequently, 162 extracts primarily hit were serially diluted and added to an evaluation system. […]
# [6] = tested on: mitochondrial DNA (ND5) of HeLa cells; assay: Amount of mitochondrial DNA (ND5) in HeLa cells by real time PCR; assay type: cell-based, human (HeLa cells); conditions: Example 3, FIG. 6C, serially diluted
# Description: as §4, §5, §6
molecule,measurement,setting,value
C=C1[C@H](CO)[C@@H](O)C[C@@H]1n1cnc2c(=O)[nH]c(N)nc21 [Entecavir],suppression of reverse transcription activity of Entecavir-resistance mutant HBV-Pol,[1],not substantially suppressed
same,suppression of reverse transcription activity of Lamivudine-resistance mutant HBV-Pol,[2],weak
same,amount of the reporter-minus strand DNA (replication of HBV DNA),"[3]; Example 2, FIG. 5, 0.04-5.00 μM/well",decreased in an Entecavir-concentration depending manner
same,suppression of reverse transcription by wild-type HBV-Pol,[3],suppressed reverse transcription by a wild-type HBV-Pol in a concentration-dependent manner
constitutively active human MEK1 (S218E/S222E) (from UniProt Q02750 1-393) (enzyme),HBV replication (reporter-minus strand DNA by real time PCR) in HeLa cells under forced expression of MEK1,[4],10 fold
Hypothemycin,suppression of reverse transcription activity of Entecavir-resistance mutant HBV-Pol,[1],all in a concentration-dependent manner
same,suppression of reverse transcription activity of Lamivudine-resistance mutant HBV-Pol,[2],all in a concentration-dependent manner
same,amount of genomic DNA (G3PDH exon 8),[5],not affected
same,amount of mitochondrial DNA (ND5),[6],not affected
same,replication of HBV DNA,"[3]; Example 3, FIG. 6A, serially diluted",inhibited replication of HBV DNA in a concentration-dependent manner
same,suppression of reverse transcription by wild-type HBV-Pol,[3],all in a concentration-dependent manner
